Data taken from US11679103B2, “Multi-targeting agents for Alzheimer's disease therapy” (The Regents of the University of California, priority 2018, dated 2023).

Tests used:
α4β2* nAChRs = α4β2* nAChRs (Rattus norvegicus, UniProt P09483+P12390); conditions: rat brain slices; for displacement of [3H]cytisine: 100 nM
Description: In Vitro Studies: Ex vivo rat brain slices were prepared at 10 μm thick using a Leica 1850 cryotome and used for [^3H]cytisine binding. […] The apposed phosphor screens were read and analyzed by OptiQuant acquisition and analysis program of the Cyclone Storage Phosphor System (Packard Instruments Co., Boston, Mass.). Region-of-interest of same size were drawn and analyzed on brain regions using OptiQuant software and binding of [^3H]cytisine measured in Digital Light Units/mm^2 (DLU/mm^2). Data was analyzed using following procedure: (a) the non-specific binding of [^3H]cytisine was subtracted for all samples; (b) the specific binding was normalized to 100% (no competitive ligand) and (c) the binding isotherms were fit to the Hill equation (KELL BioSoft software (v 6), Cambridge, U.K.).
Nicotinic receptor binding: The Aβ plaque-α4β2* nAChR multi-agents were tested for their affinity to the α4β2* nAChRs using rat brain slices labeled with [^3H]cytisine. […] Three brain regions analyzed included thalamus, frontal cortex and subiculum.

Aβ amyloid plaques = assay: [3H]PIB competition autoradiography in postmortem human AD frontal cortex slices; assay type: binding; conditions: for effect on [3H]PIB binding: 1 μM; for GM/WM ratio of [3H]PIB binding: human AD frontal cortex; for displacement of [3H]PIB (words, discussion): FIG. 10 and 11; for effect on [3H]PIB binding level: GM and WM
Description: Post-mortem human AD frontal cortex sections (10 μm thick; human brain tissue obtained from Banner Sun Health Research Institute, Sun City, Ariz.) were preincubated in 10% alcohol PBS buffer for 10 minutes. The brain sections were placed in a glass chamber and incubated with [^3H]PIB (2 μCi/cc) in 10% alcohol PBS buffer, pH 7.4 at 37° C. for 1 h. The slices were then washed with cold 10% alcohol PBS buffer (2×3 mins), cold deionized water 1 min, respectively. The brain sections were air dried, exposed overnight on a phosphor film, and then placed on the Phosphor Autoradiographic Imaging System/Cyclone Storage Phosphor System (Packard Instruments Co). Regions of interest (ROIs) were drawn on the slices and the extent of binding of [^3H]PIB was measured with DLU/mm^2 using the OptiQuant acquisition and analysis program (Packard Instruments Co).
The Aβ plaque-α4β2* nAChR multi-agent was tested for binding to Aβ amyloid plaques in human postmortem AD brain frontal cortex slices labeled with [^3H]PIB (75-90 year olds, Braak score V-VI).

Amyloid β = biological target: T1, Amyloid β (Homo sapiens, UniProt P05067); conditions: cited from earlier work
T1 construct: host or cells: AD patients (clinical trials)

[1] = 1 μM test agent, control GM/WM approx. 2
[2] = 10 μM test agent, control GM/WM approx. 3

α4β2* nAChRs, sequence (P09483 31-630): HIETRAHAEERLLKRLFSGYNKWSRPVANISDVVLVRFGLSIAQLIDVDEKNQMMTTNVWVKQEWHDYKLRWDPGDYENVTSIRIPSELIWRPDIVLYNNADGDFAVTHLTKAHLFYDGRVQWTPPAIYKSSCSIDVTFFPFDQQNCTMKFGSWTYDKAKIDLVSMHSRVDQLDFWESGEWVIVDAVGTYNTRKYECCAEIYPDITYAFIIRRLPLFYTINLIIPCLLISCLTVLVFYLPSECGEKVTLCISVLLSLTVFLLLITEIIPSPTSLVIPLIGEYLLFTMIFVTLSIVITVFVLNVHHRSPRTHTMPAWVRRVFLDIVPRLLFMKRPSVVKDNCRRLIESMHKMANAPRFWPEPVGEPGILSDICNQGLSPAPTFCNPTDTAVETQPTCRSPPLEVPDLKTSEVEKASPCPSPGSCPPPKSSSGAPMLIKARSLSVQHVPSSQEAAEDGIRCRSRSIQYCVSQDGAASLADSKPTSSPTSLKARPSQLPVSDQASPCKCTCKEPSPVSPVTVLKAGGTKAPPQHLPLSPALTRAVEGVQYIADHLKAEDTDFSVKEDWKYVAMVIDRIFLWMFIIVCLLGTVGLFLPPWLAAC
α4β2* nAChRs, sequence (P12390 25-500): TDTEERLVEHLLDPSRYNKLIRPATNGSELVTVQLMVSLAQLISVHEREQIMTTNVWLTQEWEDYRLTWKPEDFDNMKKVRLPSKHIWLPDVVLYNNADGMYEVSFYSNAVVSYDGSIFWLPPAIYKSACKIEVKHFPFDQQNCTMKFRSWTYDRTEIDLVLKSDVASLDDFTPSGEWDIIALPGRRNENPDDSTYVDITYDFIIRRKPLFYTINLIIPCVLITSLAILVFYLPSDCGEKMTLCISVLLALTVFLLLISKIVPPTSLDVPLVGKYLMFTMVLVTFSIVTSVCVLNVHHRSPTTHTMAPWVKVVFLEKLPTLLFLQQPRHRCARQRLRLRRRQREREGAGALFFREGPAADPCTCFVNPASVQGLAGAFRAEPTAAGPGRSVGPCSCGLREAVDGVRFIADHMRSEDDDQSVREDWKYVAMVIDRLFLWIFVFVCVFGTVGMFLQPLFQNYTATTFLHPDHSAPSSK

| Compound | effect on [3H]PIB binding (Aβ amyloid plaques) | GM/WM ratio of [3H]PIB binding (Aβ amyloid plaques; [1]) | GM/WM ratio of [3H]PIB binding (Aβ amyloid plaques; [2]) | displacement of [3H]PIB (words, discussion) (Aβ amyloid plaques; human frontal cortex) | effect on [3H]PIB binding level (Aβ amyloid plaques; 10 μM) | other results |
| --- | --- | --- | --- | --- | --- | --- |
| 5-(3-methoxy-4-propyloxycinnamate)-3-(2-(S)-pyrrolidinylmethoxy)pyridine [GKS-007] | some inhibitory effect | no significant GM/WM ratio reduction |  |  |  | displacement of [3H]cytisine (α4β2* nAChRs): Displacement of significant amounts; affinity at α4β2* nAChR sites (α4β2* nAChRs): high affinity |
| 5-(3′-Ethyl 3-methoxy-4-propyloxycinnamate)-3-(2-(S)-pyrrolidinylmethoxy)pyridine [GKS-006] |  |  |  |  |  | displacement of [3H]cytisine (α4β2* nAChRs): Displacement of significant amounts; affinity at α4β2* nAChR sites (α4β2* nAChRs): high affinity |
| COc1cc(/C=C/C(=O)CC(=O)/C=C/c2ccc(O)c(OC)c2)ccc1O [Curcumin, curcumin] |  |  | 1.5 | significant displacement effect |  | reduction of [3H]PIB binding (Aβ amyloid plaques; 10 μM, human frontal cortex): 50% |
| COc1cc(/C=C/C(=O)O)ccc1O [FA, ferulic acid] | did not significantly affect the binding | approx. 2 | 2 | little displacement | higher levels |  |
| CNc1ccc(N=Nc2ccc(N(C)C)cc2)cc1 [TAZA, N,N,N′-trimethyl-4,4′-azodianiline] | significant displacement | 1.3 |  | greater than observed by curcumin |  |  |
| Fexofenadine curcuminate [CUR-FEX] |  |  | 1.96 | largest displacement | lower binding | reduction of GM/WM ratio of [3H]PIB (Aβ amyloid plaques; human AD frontal cortex (FIG. 10, 10 μM)): 35% |
| Fexofenadine-(3-methoxy-4-(1′-aminobutyryloxy)cinnamic acid [KD003] |  |  | 2.4 |  | higher levels |  |
| Solanezumab: anti-amyloid monoclonal antibody |  |  |  |  |  | Aβ plaque load measured by PET imaging, before vs after antibody treatment (Amyloid β; large clinical trials): did not change significantly; Outcome (clinical) (Amyloid β; mild to moderate AD subjects): Did not improve |
